This is an account of results in patent US20240209053A1 (Protagonist Therapeutics, Inc., priority 2021, published 2024).

Test [1] deals with T1, ferroportin (Homo sapiens, UniProt Q9NP59).
T1 sequence (Q9NP59 1-571): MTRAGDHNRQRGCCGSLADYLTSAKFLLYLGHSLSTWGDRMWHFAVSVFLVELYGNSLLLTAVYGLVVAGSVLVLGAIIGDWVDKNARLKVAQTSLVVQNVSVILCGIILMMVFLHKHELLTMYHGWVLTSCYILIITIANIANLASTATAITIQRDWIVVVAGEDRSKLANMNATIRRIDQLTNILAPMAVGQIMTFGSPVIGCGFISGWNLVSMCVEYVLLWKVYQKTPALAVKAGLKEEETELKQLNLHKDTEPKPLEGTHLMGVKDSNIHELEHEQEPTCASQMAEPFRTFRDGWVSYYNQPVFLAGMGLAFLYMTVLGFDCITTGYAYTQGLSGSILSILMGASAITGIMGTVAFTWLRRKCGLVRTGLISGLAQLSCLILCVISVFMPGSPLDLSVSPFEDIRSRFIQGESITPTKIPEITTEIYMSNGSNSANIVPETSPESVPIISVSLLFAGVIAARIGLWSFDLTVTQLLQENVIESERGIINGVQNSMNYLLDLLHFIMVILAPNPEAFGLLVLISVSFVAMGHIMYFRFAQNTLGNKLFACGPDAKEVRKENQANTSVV
Briefly: T47D cell-based ferroportin internalization assay in presence of 0.5% mouse serum albumin (MSA). Particulars: T47D cells. In short, it runs like this:
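T47D cells exposed 1 hr to peptide series (10 points from ~5 μM) premixed 30 min at room temperature with 0.5% mouse serum albumin, then 200 nM AF647-labelled ferroportin-binding peptide for 2 hr. Flow cytometry MFI of live singlets; IC50 by 4-parameter fit.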

Test [2] has as its target T2, human ferroportin (SLC40A1) (Homo sapiens, UniProt Q9NP59).
T2 sequence (Q9NP59 1-571): T1 sequence (Q9NP59 1-571)
Briefly: FPN activity assay: internalization/degradation of ferroportin-GFP in stably transfected HEK293 cells (decrease in GFP fluorescence). Type of test: cell-based. Particulars: compound incubated at least 18 hours. An outline of the steps: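 HEK293 cells stably expressing human ferroportin C-terminally fused to GFP were exposed to peptides for at least 18 h, at most 24 h. Internalization/degradation read as loss of GFP fluorescence; EC50 derived. Retro-inverse mini-hepcidin peptides used as control standards.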

Numbered stars: 1 amine (or outer) side, 2 acyl side, 3 side chain; on linkers, the order of the positions; unused ones are H or OH. Bridge positions count the residues as written; N and C are the ends. Square brackets hold non-standard residues; d marks the D form. Side chains are listed from the residue outwards. Peptide text beside a SMILES is read from it. * marks the point of attachment. Dip = N[C@H](C(=O)O)C(c1ccccc1)c1ccccc1; Hag = O=C([C@H](CCC=[*:3])N[*:1])[*:2]; Palmitoyl = CCCCCCCCCCCCCCCC(=O)*; tBuAla = CC(C)(C)C[C@H](N)C(=O)O; β3hF = N[C@H](CC(=O)O)Cc1ccccc1; NMeL = CN[C@@H](CC(C)C)C(=O)O; Isovaleryl = CC(C)CC(=O)*; Ahx = NCCCCCC(=O)O

The term IC50 denotes the concentration that inhibits the measured activity by half. As to `CCCCCCCCCCCCCCCC(=O)NCCCCCC(=O)NCCCC[C@H](NC(=O)C[C@H](Cc1ccccc1)NC(=O)[C@@H]1CCC=CCC[C@H](NC(=O)CC(C)C)C(=O)N[C@@H]([C@@H](C)O)C(=O)N[C@@H](Cc2c[nH]cn2)C(=O)N[C@@H](C(c2ccccc2)c2ccccc2)C(=O)N2CCC[C@H]2C(=O)N[C@@H](C)C(=O)N[C@@H](C)C(=O)N1)C(=O)N[C@H](CCCCN)C(N)=O` [Compd 45] (Isovaleryl-[Hag]TH[Dip]PAA[Hag][β3hF]K([Ahx-Palmitoyl])[dK]-NH2; staple 1-8), the IC50 in test [1] and in test [2] was 10 to 100 nM throughout.
Turning to `CCCCCCCCCCCCCCCC(=O)NCCCCCC(=O)NCCCC[C@H](NC(=O)C[C@H](Cc1ccccc1)NC(=O)[C@H]1CCC=CCC[C@H](NC(=O)CC(C)C)C(=O)N[C@@H]([C@@H](C)O)C(=O)N[C@@H](Cc2c[nH]cn2)C(=O)N[C@@H](C(c2ccccc2)c2ccccc2)C(=O)N2CCC[C@H]2C(=O)N[C@@H](C)C(=O)N[C@@H]([C@@H](C)CC)C(=O)N1)C(=O)N[C@H](CCCCN)C(N)=O` [Compd 76], the 50% inhibitory concentration (IC50) in test [1] and in test [2] was 10 to 100 nM throughout.
With `CCCCCCCCCCCCCCCC(=O)NCCCCCC(=O)NCCCC[C@@H]1NC(=O)[C@@H]2CCCN2C(=O)[C@H](C(c2ccccc2)c2ccccc2)NC(=O)[C@H](Cc2c[nH]cn2)NC(=O)[C@H]([C@@H](C)O)NC(=O)[C@@H](NC(=O)CC(C)C)CCC=CCC[C@@H](C(=O)N[C@H](CC(N)=O)Cc2ccccc2)NC(=O)[C@H]([C@@H](C)CC)NC1=O` [Compd 24] (Isovaleryl-[Hag]TH[Dip]PK([Ahx-Palmitoyl])I[Hag][β3hF]-NH2; staple 1-8), the half-maximal inhibitory concentration (IC50) in test [1] and in test [2] was 10 to 100 nM in each case.
With `CCCCCCCCCCCCCCCC(=O)NCCCCCC(=O)NCCCC[C@H](NC(=O)C[C@H](Cc1ccccc1)NC(=O)[C@@H]1CCC=CCC[C@H](NC(=O)CC(C)C)C(=O)N[C@@H]([C@@H](C)O)C(=O)N[C@@H](Cc2c[nH]cn2)C(=O)N[C@@H](C(c2ccccc2)c2ccccc2)C(=O)N2CCC[C@H]2C(=O)N[C@@H](C)C(=O)N(C)[C@@H](CC(C)C)C(=O)N1)C(=O)N[C@H](CCCCN)C(N)=O` [Compd 53] (Isovaleryl-[Hag]TH[Dip]PA[NMeL][Hag][β3hF]K([Ahx-Palmitoyl])[dK]-NH2; staple 1-8), the half-maximal inhibitory concentration (IC50) in test [1] lay within 10 to 100 nM; in test [2] it was 100 to 500 nM.
On to `CCCCCCCCCCCCCCCC(=O)NCCCCCC(=O)NCCCC[C@H](NC(=O)C[C@H](Cc1ccccc1)NC(=O)[C@H]1CCCC=CCCC[C@@H](NC(=O)CC(C)C)C(=O)N[C@@H]([C@@H](C)O)C(=O)N[C@@H](Cc2c[nH]cn2)C(=O)N[C@@H](C(c2ccccc2)c2ccccc2)C(=O)N2CCC[C@H]2C(=O)N[C@@H](C)C(=O)N[C@@H]([C@@H](C)CC)C(=O)N1)C(=O)N[C@H](CCCCN)C(N)=O` [Compd 73], for which the results for the IC50 in test [1] and in test [2] were greater than 500 nM and 100 to 500 nM, respectively.
Turning to `CCCCCCCCCCCCCCCC(=O)NCCCCCC(=O)NCCCC[C@H](NC(=O)C[C@H](Cc1ccccc1)NC(=O)[C@@H]1CCC=CCC[C@H](NC(=O)CC(C)C)C(=O)N[C@@H]([C@@H](C)O)C(=O)N[C@@H](Cc2c[nH]cn2)C(=O)N[C@@H](C(c2ccccc2)c2ccccc2)C(=O)N2CCC[C@H]2C(=O)N[C@@H](C)C(=O)N[C@@H]([C@@H](C)CC)C(=O)N1)C(=O)N[C@@H](C)C(N)=O` [Compd 48] (Isovaleryl-[Hag]TH[Dip]PAI[Hag][β3hF]K([Ahx-Palmitoyl])A-NH2; staple 1-8), the 50% inhibitory concentration (IC50) in test [1] and in test [2] was 10 to 100 nM each time.
As for `CCCCCCCCCCCCCCCC(=O)NCCCCCC(=O)NCCCC[C@H](NC(=O)[C@H](C)NC(=O)[C@@H]1CCC=CCC[C@H](NC(=O)CC(C)C)C(=O)N[C@@H]([C@@H](C)O)C(=O)N[C@@H](Cc2c[nH]cn2)C(=O)N[C@@H](C(c2ccccc2)c2ccccc2)C(=O)N2CCC[C@H]2C(=O)N[C@@H](C)C(=O)N[C@@H]([C@@H](C)CC)C(=O)N1)C(=O)N[C@H](CCCCN)C(N)=O` [Compd 46] (Isovaleryl-[Hag]TH[Dip]PAI[Hag]AK([Ahx-Palmitoyl])[dK]-NH2; staple 1-8), the IC50 in test [1] and in test [2] was 100 to 500 nM throughout.
With `CCCCCCCCCCCCCCCC(=O)NCCCCCC(=O)NCCCC[C@H](NC(=O)C[C@H](Cc1ccccc1)NC(=O)[C@H]1CCCC=CCC[C@@H](NC(=O)CC(C)C)C(=O)N[C@@H]([C@@H](C)O)C(=O)N[C@@H](Cc2c[nH]cn2)C(=O)N[C@@H](C(c2ccccc2)c2ccccc2)C(=O)N2CCC[C@H]2C(=O)N[C@@H](C)C(=O)N[C@@H]([C@@H](C)CC)C(=O)N1)C(=O)N[C@H](CCCCN)C(N)=O` [Compd 71], the IC50 in test [1] and in test [2] was 100 to 500 nM each time.
With `CCCCCCCCCCCCCCCC(=O)NCCCCCC(=O)NCCCC[C@H](NC(=O)C[C@H](Cc1ccccc1)NC(=O)[C@@H]1CCC=CC[C@H](NC(=O)CC(C)C)C(=O)N[C@@H]([C@@H](C)O)C(=O)N[C@@H](Cc2c[nH]cn2)C(=O)N[C@@H](C(c2ccccc2)c2ccccc2)C(=O)N2CCC[C@H]2C(=O)N[C@@H](C)C(=O)N[C@@H]([C@@H](C)CC)C(=O)N1)C(=O)N[C@@H](CCCNC(=N)N)C(N)=O` [Compd 23], the concentration for half-maximal inhibition (IC50) in test [1] lay within 1 to 10 nM; in test [2], 10 to 100 nM.
Taken in the same sequence, the figures for `CCCCCCCCCCCCCCCC(=O)NCCCCCC(=O)NCCCC[C@@H]1NC(=O)[C@H](C)NC(=O)[C@@H]2CCCN2C(=O)[C@H](C(c2ccccc2)c2ccccc2)NC(=O)[C@H](Cc2c[nH]cn2)NC(=O)[C@H]([C@@H](C)O)NC(=O)[C@@H](NC(=O)CC(C)C)CCC=CCC[C@@H](C(=O)N[C@H](CC(=O)N[C@H](CCCCN)C(N)=O)Cc2ccccc2)NC1=O` (single isomer, unassigned) [Compd 37] were 100 to 500 nM and 100 to 500 nM.
Take `CCCCCCCCCCCCCCCC(=O)NCCCCCC(=O)NCCCC[C@@H]1NC(=O)[C@@H]2CCCN2C(=O)[C@H](C(c2ccccc2)c2ccccc2)NC(=O)[C@H](Cc2c[nH]cn2)NC(=O)[C@H]([C@@H](C)O)NC(=O)[C@@H](NC(=O)CC(C)C)CCC=CCC[C@@H](C(=O)N[C@H](CC(=O)N[C@H](CCCCN)C(N)=O)Cc2ccccc2)NC(=O)[C@H]([C@@H](C)CC)NC1=O` [Compd 36]: the results for the IC50 in test [1] and in test [2] were 1 to 10 nM and 10 to 100 nM, respectively.
On to `CCCCCCCCCCCCCCCC(=O)NCCCCCC(=O)NCCCC[C@H](NC(=O)[C@H](CC(C)(C)C)NC(=O)[C@@H]1CCC=CCC[C@H](NC(=O)CC(C)C)C(=O)N[C@@H]([C@@H](C)O)C(=O)N[C@@H](Cc2c[nH]cn2)C(=O)N[C@@H](C(c2ccccc2)c2ccccc2)C(=O)N2CCC[C@H]2C(=O)N[C@@H](C)C(=O)N[C@@H]([C@@H](C)CC)C(=O)N1)C(=O)N[C@H](CCCCN)C(N)=O` [Compd 64] (Isovaleryl-[Hag]TH[Dip]PAI[Hag][tBuAla]K([Ahx-Palmitoyl])[dK]-NH2; staple 1-8), for which the half-maximal inhibitory concentration (IC50) in test [1] and in test [2] was 10 to 100 nM throughout.
In the case of `CCCCCCCCCCCCCCCC(=O)NCCCCCC(=O)NCCCC[C@H](NC(=O)C[C@H](Cc1ccccc1)NC(=O)[C@H]1CCC=CCC[C@@H](NC(=O)CC(C)C)C(=O)N[C@@H]([C@@H](C)O)C(=O)N[C@@H](Cc2c[nH]cn2)C(=O)N[C@@H](C(c2ccccc2)c2ccccc2)C(=O)N2CCC[C@H]2C(=O)N[C@@H](C)C(=O)N[C@@H]([C@@H](C)CC)C(=O)N1)C(=O)N[C@H](CCCCN)C(N)=O` [Compd 72], the IC50 in test [1] lay in the range of 100 to 500 nM; in test [2] it was 10 to 100 nM.
